The text below walks through data of article PMC3081663 (Journal of Natural Products, 2011).

Some results are limits rather than exact numbers.

For data set [1], the system named is HCT-15.
For data set [2], the system named is supercoiled plasmid DNA. Description: In vitro DNA damage assay. The format is biochemical.
In data set [3] the test system is panel of cell lines. Description: Cytotoxicity in a panel of cell lines. The class given is cell-based.
Data set [4] concerns MDR1/MRP in HCT-15 cells. The class given is cell-based.
Data set [5] concerns human colon carcinoma cell line LS174T. Conditions: LS174T subcutaneously implanted in nude mice; cited from earlier work.
Data set [6] has as its system phosphorylation of histone H2AX in HCT-15 cells. Description: In-cell Western assay for phosphorylation of histone H2AX. The class given is cell-based. The settings on record: 4 h of drug treatment.
Data set [7] has as its system cell lines in which MDR1 was overexpressed. Conditions: MDR1 overexpressed by drug selection or transfection; cited from earlier work.
The subject of data set [8] is phosphorylation of histone H2AX in MCF7 cells. Description: In-cell Western assay for phosphorylation of histone H2AX. The class given is cell-based. The settings on record: 4 h.
The subject of data set [9] is MCF-7. The settings on record: MCF7 cells, 72 h treatment.

Turning to `CC(=O)N1CCN(c2ccc(OCC3COC(Cn4ccnc4)(c4ccc(Cl)cc4Cl)O3)cc2)CC1` (centres unmarked) [ketoconazole], in data set [1], the “effect on austocystin D cytotoxicity” value is “fully prevented”.

One may read the GI50 as the concentration that inhibits growth by half. With `CC(C)(O)CCc1ccc(O)c2c(=O)c3c(O)c4c(cc3oc12)O[C@H]1OC=C[C@@]41O` [austocystin D], the “requirement for increased nicked DNA” value in [2] (1 μM austocystin D with different additives) is “only in the presence of both liver microsomes and the NADPH regenerating system”. Further, the “concentration causing direct DNA damage (nicking of supercoiled plasmid DNA)” value in [2] (human liver microsomes and NADPH regenerating system, 4 h, 37 °C) was 100 nM. Besides, in data set [3] (72 h, read-out: GI50 values for three cell lines), the GI50 was below 10 nM. For the same molecule, the “selectivity between sensitive and resistant cell lines” value in data set [3] (72 h cytotoxicity panel) was “over 1000 fold”. In addition, the “inhibition of calcein-AM efflux (retention of calcein)” value in data set [4] is “inhibited efflux of calcein-AM”. In addition, the “tumor growth in vivo” value in data set [5] is “inhibited the growth”. Besides, in data set [6], the “induction of phosphorylation of histone H2AX” value is on record as “induced the phosphorylation of histone H2AX”. In data set [7], the “fold more potent in cell lines in which MDR1 was overexpressed” value is on record as 20 fold.

`COc1cccc2c1C(=O)c1c(O)c3c(c(O)c1C2=O)C[C@@](O)(C(=O)CO)C[C@@H]3O[C@H]1C[C@H](N)[C@H](O)[C@H](C)O1` [doxorubicin]: the “induction of phosphorylation of histone H2AX” value in data set [6] is listed as “induced dose-dependent phosphorylation of histone H2AX”.

For the molecule `CC(C)(O)CCc1ccc(O)c2c(=O)c3c(O)c4c(cc3oc12)O[C@H]1OCC[C@@]41O` [dihydro-austocystin D], in data set [8], the “induction of the DNA damage response (phosphorylation of histone H2AX)” value is on record as “very weak”. Also, in data set [9], the “cytotoxicity (growth inhibition)” value is reported as “very weak”.

In the case of bleomycin, the “induction of phosphorylation of histone H2AX” value in [6] was “induced dose-dependent phosphorylation of histone H2AX”.

`CC[C@@]1(O)C(=O)OCc2c1cc1n(c2=O)Cc2cc3ccccc3nc2-1` [camptothecin]: the “induction of phosphorylation of histone H2AX” value in data set [6] was “induced dose-dependent phosphorylation of histone H2AX”.
